Values quoted from earlier work as cited in patent US20020137779A1, “Use of L-2-oxothiazolidine-4-carboxylic acid for the treatment of type 2 diabetes” (Advanced Biochemicals Inc., priority 2001, published 2002).

Test system: mice
Details: oral administration at 9.5 mmol/kg in mice; cited from earlier work

CC(=O)Nc1ccc(O)cc1 [acetaminophen, reference compound]
mortality: more than 90%
